According to patent US9862717B2 (Merck Patent GmbH, priority 2014, dated 2018):
Like-named read-outs stand apart in the source and are kept apart here.

Molecular target: T1, CDK8/CycC (Homo sapiens, UniProt P49336)
T1 construct: purchased Invitrogen PV4402
Assay: FRET based Lanthascreen binding competition assay for CDK8 inhibitory activity
Conditions: CDK8 co-expressed with CycC, read-out: IC50
Procedure, shortened: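 Competition binding of a dye-labeled ATP-competitive Alexa647 probe to CDK8 co-expressed with CycC, Eu-labeled via biotinylated anti-His antibody/streptavidin.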

T1 sequence (P49336 whole entry): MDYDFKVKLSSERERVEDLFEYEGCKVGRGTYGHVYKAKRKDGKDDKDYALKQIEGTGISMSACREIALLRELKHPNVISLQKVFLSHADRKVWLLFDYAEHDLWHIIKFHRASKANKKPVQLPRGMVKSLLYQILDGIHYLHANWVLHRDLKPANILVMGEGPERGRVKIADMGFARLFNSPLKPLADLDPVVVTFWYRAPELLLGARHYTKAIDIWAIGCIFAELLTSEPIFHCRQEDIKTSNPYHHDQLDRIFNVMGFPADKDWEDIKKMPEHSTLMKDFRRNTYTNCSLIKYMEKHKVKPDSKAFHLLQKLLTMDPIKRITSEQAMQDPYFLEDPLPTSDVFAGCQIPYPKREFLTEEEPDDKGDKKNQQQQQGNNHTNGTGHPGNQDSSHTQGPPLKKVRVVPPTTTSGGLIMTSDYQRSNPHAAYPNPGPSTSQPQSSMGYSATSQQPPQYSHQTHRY
T1 sequence (P24863 whole entry partner): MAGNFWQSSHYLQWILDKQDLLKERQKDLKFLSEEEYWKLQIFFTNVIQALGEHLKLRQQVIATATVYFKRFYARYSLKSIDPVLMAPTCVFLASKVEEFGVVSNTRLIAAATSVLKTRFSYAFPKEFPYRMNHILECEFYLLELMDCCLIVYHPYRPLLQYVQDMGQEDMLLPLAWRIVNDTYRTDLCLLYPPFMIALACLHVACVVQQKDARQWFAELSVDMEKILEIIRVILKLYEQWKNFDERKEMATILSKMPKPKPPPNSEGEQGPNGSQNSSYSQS

IC50 (class symbols) [nM] | IC50 (numeric value) [nM] | SMILES
1000 to 10000 | – | Cc1n[nH]c2ncc(C(=O)N3CCC[C@@H]3c3ccc4[nH]ncc4c3)cc12 [compound 246, [(R)-2-(1H-Indazol-5-yl)-pyrrolidin-1-yl]-(3-methyl-1H-pyrazolo[3,4-b]pyridin-5-yl)-methanone]
10 to 100 | – | Cc1n[nH]c2ncc(C(=O)N3CCC[C@H]3c3ccc(C#N)cc3)cc12 [compound 247, 4-[(S)-1-(3-Methyl-1H-pyrazolo[3,4-b]pyridine-5-carbonyl)-pyrrolidin-2-yl]-benzonitrile]
1000 to 10000 | – | Cc1n[nH]c2ncc(C(=O)N3CCC[C@@H]3c3ccc(C#N)cc3)cc12 [compound 248, 4-[(R)-1-(3-Methyl-1H-pyrazolo[3,4-b]pyridine-5-carbonyl)-pyrrolidin-2-yl]-benzonitrile]
10 to 100 | – | Cc1n[nH]c2ncc(C(=O)N3CCC(CCO)(c4ccc(Cl)cc4)C3)cc12 (stereo not drawn) [compound 249, [3-(4-Chloro-phenyl)-3-(2-hydroxy-ethyl)-pyrrolidin-1-yl]-(3-methyl-1H-pyrazolo[3,4-b]pyridin-5-yl)-methanone]
100 to 1000 | – | Nc1n[nH]c2ccc(C(=O)N3CCC(CCO)(c4ccc(Cl)cc4)C3)cc12 (stereo not drawn) [compound 250, (3-Amino-1H-indazol-5-yl)-[3-(4-chloro-phenyl)-3-(2-hydroxy-ethyl)-pyrrolidin-1-yl]-methanone]
100 to 1000 | – | Cc1n[nH]c2ncc(C(=O)N3C[C@H](N)C[C@H]3c3ccc(Cl)cc3)cc12 [compound 251, [(2S,4R)-4-Amino-2-(4-chloro-phenyl)-pyrrolidin-1-yl]-(3-methyl-1H-pyrazolo[3,4-b]pyridin-5-yl)-methanone]
100 to 1000 | – | Cc1n[nH]c2ncc(C(=O)N3CCC[C@H]3c3ccc(Cl)c(C#N)c3)cc12 [compound 252, 2-Chloro-5-[(S)-1-(3-methyl-1H-pyrazolo[3,4-b]pyridine-5-carbonyl)-pyrrolidin-2-yl]-benzonitrile]
1000 to 10000 | – | Cc1n[nH]c2ncc(C(=O)N3CCC[C@@H]3c3ccc(Cl)c(C#N)c3)cc12 [compound 253, 2-Chloro-5-[(R)-1-(3-methyl-1H-pyrazolo[3,4-b]pyridine-5-carbonyl)-pyrrolidin-2-yl]-benzonitrile]
100 to 1000 | – | CN[C@@H]1C[C@@H](c2ccc(Cl)cc2)N(C(=O)c2cnc3[nH]nc(C)c3c2)C1 [compound 254, [(2S,4R)-2-(4-Chloro-phenyl)-4-methylamino-pyrrolidin-1-yl]-(3-methyl-1H-pyrazolo[3,4-b]pyridin-5-yl)-methanone]
1000 to 10000 | – | Cc1n[nH]c2ncc(C(=O)N3C[C@@H](O)[C@H](c4ccc(Cl)cc4)C3)cc12 [compound 255, [(3R,4S)-3-(4-Chloro-phenyl)-4-hydroxy-pyrrolidin-1-yl]-(3-methyl-1H-pyrazolo[3,4-b]pyridin-5-yl)-methanone]
< 10 | – | Cc1n[nH]c2ncc(C(=O)N3C[C@H](c4ccc(Cl)cc4)[C@@H](O)C3)cc12 [compound 256, [(3S,4R)-3-(4-Chloro-phenyl)-4-hydroxy-pyrrolidin-1-yl]-(3-methyl-1H-pyrazolo[3,4-b]pyridin-5-yl)-methanone]
< 10 | – | Cc1n[nH]c2ccc(C(=O)N3CCC[C@H]3c3ccc(C(F)(F)F)cc3)nc12 [compound 257, (S)-(3-Methyl-1H-pyrazolo[4,3-b]pyridin-5-yl)(2-(4-(trifluoromethyl)phenyl)pyrrolidin-1-yl)methanone]
1000 to 10000 | – | Cc1n[nH]c2ncc(C(=O)N3CCC[C@@H]3c3cccc(C#N)c3)cc12 [compound 258, 3-[(R)-1-(3-Methyl-1H-pyrazolo[3,4-b]pyridine-5-carbonyl)-pyrrolidin-2-yl]-benzonitrile]
100 to 1000 | – | Cc1n[nH]c2ncc(C(=O)N3CCC[C@H]3c3cccc(C#N)c3)cc12 [compound 259, 3-[(S)-1-(3-Methyl-1H-pyrazolo[3,4-b]pyridine-5-carbonyl)-pyrrolidin-2-yl]-benzonitrile]
< 10 | – | Cc1n[nH]c2ccc(C(=O)N3CCCC3c3ccc(Cl)c(F)c3)nc12 (stereo not drawn) [compound 260, (2-(4-chloro-3-fluorophenyl)pyrrolidin-1-yl)(3-methyl-1H-pyrazolo[4,3-b]pyridin-5-yl)methanone]
100 to 1000 | – | Cc1n[nH]c2ncc(C(=O)N3C[C@H](O)C[C@H]3c3ccc(Cl)cc3)cc12 [compound 261, [(2S,4R)-2-(4-Chloro-phenyl)-4-hydroxy-pyrrolidin-1-yl]-(3-methyl-1H-pyrazolo[3,4-b]pyridin-5-yl)-methanone]
100 to 1000 | – | Cc1n[nH]c2ncc(C(=O)N3CCC[C@H]3c3ccc(CN)cc3)cc12 [compound 262, [(S)-2-(4-Aminomethyl-phenyl)-pyrrolidin-1-yl]-(3-methyl-1H-pyrazolo[3,4-b]pyridin-5-yl)-methanone]
– | 340 | Nc1n[nH]c2cnc(C(=O)N3CCC[C@H]3c3ccc(Cl)cc3)cc12 [compound 265]
